Legend:
Format in all cases: biochemical
PKBα [Ser473Asp] = molecular target: T1, PKBα [Ser473Asp] (Homo sapiens, UniProt P31749, S473D); experiment: Protein kinase activity assay, PKBα; details: Table I a; percentage of catalytic activity compared to DMSO; Crosstide substrate
T1 construct: made in house; host or cells: HEK293
Experimental: (§1) For the expression and purification of protein kinases fused to GST, pEBG-2T derived plasmids were transfected into 8×14.5 cm dishes containing HEK293 cells using the PEI method ([…] and […]/14.5 cm dish). The cells were lysed after 48 h in a buffer containing 50 mM Tris-HCl pH 7.5, 1 mM EGTA, 1 mM EDTA, 1% (w/v) Triton X-100, 1 mM sodium orthovanadate, […], 5 mM sodium pyrophosphate, 0.27 M sucrose, 0.1% β-mercaptoethanol, and 1 tablet of protease inhibitor cocktail per 50 ml of buffer. Lysates were frozen in liquid nitrogen and kept at −80° C. until required. Purification involved incubation of the cleared lysate with glutathione sepharose, followed by 2 washes with 0.5 M NaCl in lysis buffer, 8 washes with a buffer containing 50 mM Tris-HCl, 0.1 mM EGTA and 0.1% β-mercaptoethanol (buffer A), and a last wash with buffer A supplemented with 0.26 M sucrose. […]
(§2) The protein kinase activity assays were performed essentially as previously described (Engel, M. et al. Embo J 25, 5469-80 (2006)). The assays were done in a 96-well format and 4 μl aliquots spotted on P81 phospho-cellulose papers (Whatman) using epMotion 5070 (Eppendorf), washed in 0.01% phosphoric acid, dried, and then exposed and analyzed using PhosphoImager technology (FLA-9000 Starion, Fujifilm). […]

PRK2 = molecular target: T2, PRK2 (Homo sapiens, UniProt Q16513); experiment: Protein kinase activity assay, PRK2; details: Table I a; percentage of catalytic activity compared to DMSO; Crosstide substrate
T2 construct: made in house; host or cells: HEK293
T2 sequence (Q16513 whole entry): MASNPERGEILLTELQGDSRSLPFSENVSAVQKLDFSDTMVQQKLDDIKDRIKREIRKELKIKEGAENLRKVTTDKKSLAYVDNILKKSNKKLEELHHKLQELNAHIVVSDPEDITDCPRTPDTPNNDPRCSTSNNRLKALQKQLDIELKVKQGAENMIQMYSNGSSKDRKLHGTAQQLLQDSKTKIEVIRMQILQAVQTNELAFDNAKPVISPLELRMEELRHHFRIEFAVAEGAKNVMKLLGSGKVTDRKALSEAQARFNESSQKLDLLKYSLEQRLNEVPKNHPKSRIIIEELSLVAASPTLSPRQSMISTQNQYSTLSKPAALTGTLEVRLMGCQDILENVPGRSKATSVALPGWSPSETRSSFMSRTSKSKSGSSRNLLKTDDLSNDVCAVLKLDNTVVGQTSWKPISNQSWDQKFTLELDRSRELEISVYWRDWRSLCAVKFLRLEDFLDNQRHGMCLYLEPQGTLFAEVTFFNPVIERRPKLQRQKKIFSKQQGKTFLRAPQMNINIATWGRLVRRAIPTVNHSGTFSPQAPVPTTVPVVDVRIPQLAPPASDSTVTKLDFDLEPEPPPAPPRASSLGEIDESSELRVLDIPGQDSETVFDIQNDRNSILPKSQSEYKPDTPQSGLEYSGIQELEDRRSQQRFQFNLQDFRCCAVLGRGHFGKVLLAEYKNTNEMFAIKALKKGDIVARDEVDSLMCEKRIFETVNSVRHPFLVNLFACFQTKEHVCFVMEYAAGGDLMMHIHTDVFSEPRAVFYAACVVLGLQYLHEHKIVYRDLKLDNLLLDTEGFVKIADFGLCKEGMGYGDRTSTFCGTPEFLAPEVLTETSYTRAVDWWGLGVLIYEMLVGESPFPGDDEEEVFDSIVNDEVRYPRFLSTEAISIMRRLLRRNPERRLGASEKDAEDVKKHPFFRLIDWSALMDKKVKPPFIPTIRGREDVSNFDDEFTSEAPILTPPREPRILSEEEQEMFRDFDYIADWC
Experimental: as §1, §2

PKA = experiment: Protein kinase activity assay, PKA; details: Table I a; percentage of catalytic activity compared to DMSO; Kemptide substrate
Experimental: (§3) The protein kinase activity assays were performed essentially as previously described (Engel, M. et al. Embo J 25, 5469-80 (2006)). The assays were done in a 96-well format and 4 μl aliquots spotted on P81 phospho-cellulose papers (Whatman) using epMotion 5070 (Eppendorf), washed in 0.01% phosphoric acid, dried, and then exposed and analyzed using PhosphoImager technology (FLA-9000 Starion, Fujifilm). Atypical PKC (aPKC) activity assays were performed in a total volume of 20 μl containing 50 mM Tris-HCl pH 7.5, 0.05 mg/ml BSA, 0.1% (v/v) 2-mercaptoethanol, 10 mM MgCl2, 100 μM [γ^32P]ATP (5-50 cpm/pmol), 0.003% Brij, 30-50 ng of aPKC, and MBP (10 μM) or PSRtide (100 μM) as the substrate. After 15 min pre-incubation, the kinase reaction was started by addition of 6 μl of an ATP-Mg mix. When required, lipid activator (LA) phosphatidylserine (100 ng) or PKC lipid activator mix (1×) was included in the pre-incubation. Low basal activity and consistent activation of 1-592 PKCζ and 498 PKCζ by LA was obtained when the pre-incubation time was started by addition of the whole mix on the enzyme.
(§4) The substrates were T308tide (200 μM) for PDK1, Kemptide (100 μM) for PKA, and Crosstide (100 μM) for SGK, PKB, S6K, and PRK2. The activity assays for PKCα, β, θ, and δ were performed in the presence of PKC lipid activator mix (1×) using 3 μM of histone H1 as substrate. […]

PKCβ = molecular target: T3, PKCβ (Homo sapiens, UniProt P05771); experiment: Protein kinase activity assay, PKCβ; details: Table I b; percentage of catalytic activity compared to DMSO; lipid activator mix, histone H1
T3 construct: purchased ProQinase
T3 sequence (P05771 whole entry, species assumed): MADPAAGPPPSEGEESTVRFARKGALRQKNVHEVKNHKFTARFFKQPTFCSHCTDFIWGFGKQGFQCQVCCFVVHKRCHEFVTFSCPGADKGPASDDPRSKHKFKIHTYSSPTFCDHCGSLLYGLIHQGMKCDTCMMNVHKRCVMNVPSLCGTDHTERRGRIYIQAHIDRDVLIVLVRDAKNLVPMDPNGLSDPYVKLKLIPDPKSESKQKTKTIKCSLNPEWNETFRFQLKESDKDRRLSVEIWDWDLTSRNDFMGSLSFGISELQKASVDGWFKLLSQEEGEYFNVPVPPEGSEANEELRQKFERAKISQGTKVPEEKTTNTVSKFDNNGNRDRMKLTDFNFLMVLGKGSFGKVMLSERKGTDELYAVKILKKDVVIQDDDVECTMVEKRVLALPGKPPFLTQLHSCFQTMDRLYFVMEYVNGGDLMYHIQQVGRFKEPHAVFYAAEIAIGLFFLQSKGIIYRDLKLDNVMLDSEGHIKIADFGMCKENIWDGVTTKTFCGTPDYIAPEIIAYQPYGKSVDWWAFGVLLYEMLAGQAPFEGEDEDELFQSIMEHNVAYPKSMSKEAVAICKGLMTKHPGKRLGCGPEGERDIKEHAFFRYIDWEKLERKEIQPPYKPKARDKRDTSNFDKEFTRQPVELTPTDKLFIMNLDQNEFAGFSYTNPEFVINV
Experimental: as §3, §4

PDK1/PKCζ chimera = molecular target: T4, PDK1/PKCζ chimera (Homo sapiens, UniProt O15530, F157L/I118V/I119H/L113V/Q292A/R131K/T128Q/T148C/V124I/Y288G); experiment: Activity assay with PDK1/PKCζ chimera; details: PDK1 50-359/PKCζ chimera, PDK1[P-P-ζ]
T4 construct: His (N); made in house; host or cells: insect cells
T4 sequence (O15530 50-359 L113V/I118V/I119H/V124I/T128Q/R131K/T148C/F157L/Y288G/Q292A): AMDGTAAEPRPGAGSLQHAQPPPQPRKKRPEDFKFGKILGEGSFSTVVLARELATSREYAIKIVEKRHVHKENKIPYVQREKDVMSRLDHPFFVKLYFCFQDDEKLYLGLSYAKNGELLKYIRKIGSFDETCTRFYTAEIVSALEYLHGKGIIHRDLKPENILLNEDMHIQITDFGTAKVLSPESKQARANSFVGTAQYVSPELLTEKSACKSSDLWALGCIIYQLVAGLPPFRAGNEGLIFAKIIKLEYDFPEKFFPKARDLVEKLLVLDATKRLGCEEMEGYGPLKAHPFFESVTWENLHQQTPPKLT
Experimental: as §3
The substrates were T308tide (200 μM) for PDK1, Kemptide (100 μM) for PKA, and Crosstide (100 μM) for SGK, PKB, S6K, and PRK2. The activity assays for PKCα, β, θ, and δ were performed in the presence of PKC lipid activator mix (1×) using 3 μM of histone H1 as substrate.

T1 sequence (P31749 whole entry S473D): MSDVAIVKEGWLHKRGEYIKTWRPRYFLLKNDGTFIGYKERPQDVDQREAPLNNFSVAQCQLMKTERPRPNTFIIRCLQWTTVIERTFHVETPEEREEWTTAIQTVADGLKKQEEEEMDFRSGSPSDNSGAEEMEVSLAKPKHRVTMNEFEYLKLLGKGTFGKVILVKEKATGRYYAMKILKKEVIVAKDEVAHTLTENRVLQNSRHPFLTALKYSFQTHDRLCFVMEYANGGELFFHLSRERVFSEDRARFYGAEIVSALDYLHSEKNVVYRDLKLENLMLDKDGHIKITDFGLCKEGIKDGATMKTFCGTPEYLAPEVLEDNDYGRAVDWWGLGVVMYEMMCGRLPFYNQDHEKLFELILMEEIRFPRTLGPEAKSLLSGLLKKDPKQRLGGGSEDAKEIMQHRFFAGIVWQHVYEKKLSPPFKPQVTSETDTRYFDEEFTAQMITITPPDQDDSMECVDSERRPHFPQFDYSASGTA

Activity (%) PKBα (PKBα [Ser473Asp]) [%] | Activity (%) PRK2 (PRK2) [%] | Activity (%) PKA (PKA) [%] | Activity (%) Classical PKCs PKCβ (PKCβ) [%] | Effect on PDK1/PKCζ chimera activity (PDK1/PKCζ chimera) | SMILES
94 | 97 | 91 | 138 |  | Cl.O=C(O)CC(Cc1nc2c(Cl)cc(Cl)cc2[nH]1)c1ccc(Cl)cc1 (stereo not drawn) [PS171]
87 | 103 | 70 | 148 | inhibits | Cl.O=C(O)CC(Cc1nc2cc(-c3ccccc3)ccc2[nH]1)c1ccc(Cl)cc1 (stereo not drawn) [PS168]
